In ChEMBL document CHEMBL3627634, “Synthesis of novel benzohydrazone-oxadiazole hybrids as β-glucuronidase inhibitors and molecular modeling studies” (Bioorg Med Chem, 2015):
pIC50: −log10 of the molar value.

Target: T1, Beta-glucuronidase (Bos taurus, UniProt A3KMY8)
T1 sequence (A3KMY8 whole entry): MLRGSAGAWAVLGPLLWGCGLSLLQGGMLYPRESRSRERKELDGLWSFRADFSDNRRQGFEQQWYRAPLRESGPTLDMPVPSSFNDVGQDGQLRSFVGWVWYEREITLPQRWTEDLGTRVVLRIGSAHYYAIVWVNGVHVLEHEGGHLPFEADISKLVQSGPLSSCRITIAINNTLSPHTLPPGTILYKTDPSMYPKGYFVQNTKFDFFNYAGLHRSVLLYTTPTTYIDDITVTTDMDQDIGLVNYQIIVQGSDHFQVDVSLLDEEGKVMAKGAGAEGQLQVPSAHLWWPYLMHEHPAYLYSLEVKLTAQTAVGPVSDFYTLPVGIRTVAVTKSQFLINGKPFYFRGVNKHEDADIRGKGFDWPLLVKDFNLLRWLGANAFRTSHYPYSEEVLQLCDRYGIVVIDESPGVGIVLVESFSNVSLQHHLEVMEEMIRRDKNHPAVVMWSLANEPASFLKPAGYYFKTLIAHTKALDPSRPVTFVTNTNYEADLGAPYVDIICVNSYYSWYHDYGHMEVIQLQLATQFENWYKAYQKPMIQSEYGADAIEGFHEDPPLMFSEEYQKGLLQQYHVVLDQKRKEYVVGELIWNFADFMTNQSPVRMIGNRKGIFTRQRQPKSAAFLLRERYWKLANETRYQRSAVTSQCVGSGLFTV
Assay: Inhibition of bovine liver beta-glucuronidase using p-nitrophenyl-beta-D-glucuronide as substrate assessed as p-nitrophenol formation after 30 mins by multiplate reader analysis
Details: not given; call rule not given here

| Compound | IC50 |
| --- | --- |
| Cc1ccccc1/C=N/NC(=O)c1ccc(-c2nnc(-c3ccccc3O)o2)cc1 | Not Active |
| Cc1cccc(/C=N/NC(=O)c2ccc(-c3nnc(-c4ccccc4O)o3)cc2)c1 | Not Active |
| Cc1ccc(/C=N/NC(=O)c2ccc(-c3nnc(-c4ccccc4O)o3)cc2)cc1 | Not Active |
| O=C(N/N=C/c1ccccc1[N+](=O)[O-])c1ccc(-c2nnc(-c3ccccc3O)o2)cc1 | Not Active |
| O=C(N/N=C/c1cccnc1)c1ccc(-c2nnc(-c3ccccc3O)o2)cc1 | Not Active |
| COc1ccccc1/C=N/NC(=O)c1ccc(-c2nnc(-c3ccccc3O)o2)cc1 | Not Active |
| O=C(N/N=C/c1cccc(F)c1)c1ccc(-c2nnc(-c3ccccc3O)o2)cc1 | Not Active |
| O=C(N/N=C/c1cccc(Cl)c1)c1ccc(-c2nnc(-c3ccccc3O)o2)cc1 | Not Active |

The next lines start with the values.

| IC50 | Compound |
| --- | --- |
| Not Active | O=C(N/N=C/c1ccccc1Cl)c1ccc(-c2nnc(-c3ccccc3O)o2)cc1 |
| Not Active | O=C(N/N=C/c1ccncc1)c1ccc(-c2nnc(-c3ccccc3O)o2)cc1 |
| Not Active | O=C(N/N=C/c1ccc(F)cc1)c1ccc(-c2nnc(-c3ccccc3O)o2)cc1 |

Same assay, conditions: read-out: IC50

| Compound | pIC50 |
| --- | --- |
| O=C(N/N=C/c1ccc(O)cc1)c1ccc(-c2nnc(-c3ccccc3O)o2)cc1 | 4.73 |
| O=C(N/N=C/c1cccc(O)c1)c1ccc(-c2nnc(-c3ccccc3O)o2)cc1 | 4.46 |
| O=C(N/N=C/c1ccc([N+](=O)[O-])cc1)c1ccc(-c2nnc(-c3ccccc3O)o2)cc1 | 4.35 |
| O=C(N/N=C/c1ccc(Cl)cc1)c1ccc(-c2nnc(-c3ccccc3O)o2)cc1 | 4.06 |
| COc1ccc(O)c(/C=N/NC(=O)c2ccc(-c3nnc(-c4ccccc4O)o3)cc2)c1 | 4.05 |
| O=C(N/N=C/c1ccccn1)c1ccc(-c2nnc(-c3ccccc3O)o2)cc1 | 4.37 |
| O=C(N/N=C/c1ccccc1F)c1ccc(-c2nnc(-c3ccccc3O)o2)cc1 | 3.97 |

Next, values leading:

| pIC50 | Compound |
| --- | --- |
| 4.54 | O=C(N/N=C/c1ccc(O)c(O)c1)c1ccc(-c2nnc(-c3ccccc3O)o2)cc1 |
| 4.82 | O=C(N/N=C/c1cc(O)ccc1O)c1ccc(-c2nnc(-c3ccccc3O)o2)cc1 |
| 4.19 | O=C(N/N=C/c1cccc([N+](=O)[O-])c1)c1ccc(-c2nnc(-c3ccccc3O)o2)cc1 |
| 4.09 | O=C(N/N=C/c1c(O)cc(O)cc1O)c1ccc(-c2nnc(-c3ccccc3O)o2)cc1 |
| 5.15 | COc1ccc(/C=N/NC(=O)c2ccc(-c3nnc(-c4ccccc4O)o3)cc2)cc1O |
| 4.67 | O=C(N/N=C/c1cc(O)c(O)cc1O)c1ccc(-c2nnc(-c3ccccc3O)o2)cc1 |
| 4.04 | O=C(N/N=C/c1ccccc1O)c1ccc(-c2nnc(-c3ccccc3O)o2)cc1 |
